Results published in article PMC12040169 (PLOS Biology, 2025).

Assay: in vitro
Details: human, hela cells, % viability

Compound	viability at 28.5 h, 10 µM [%]	viability at 28.5 h, 10 µM (bulk resorufin, single well) [%]
Cc1ccc2[nH]c3c(c2c1)CC(NS(=O)(=O)c1c(N)noc1C)CC3 (centres unmarked) [CBK306270]	86.6	–
COCc1cccc(-c2ncc(OC)nc2NC(=O)c2c(C)noc2C)c1 [CBK145237]	95.6	–
O=c1[nH]c2cc(Cl)c(Br)nc2[nH]1 [CBK026531]	76.9	–
Clc1cc(CSc2nnnn2-c2ccccc2)cc2c1OCCCO2 [CBK297159]	92.5	–
CC(C)NS(=O)(=O)c1ccc(NC(=O)COc2ccc3ccccc3c2Br)cc1 [CBK267920]	94.3	–
CC(=O)N1CCN(C[C@@H]2C=C(C)[C@H](Cc3nnc(C(C)(C)C)o3)C[C@H]2C(C)C)CC1 [CBK289221]	86	–
CC(C(=O)N(CCC#N)Cc1cccnc1)n1cnc2ccccc21 (centres unmarked) [CBK304127]	92.5	–
CCN(CCO)c1ccc(Nc2nc(-c3cccc4ccccc34)cn3ccnc23)cc1 [CBK066243]	87.9	–
O=c1[nH]c(CSc2nnc(CCCOc3ccc(Cl)cc3Cl)o2)nc2ccccc12 [CBK268861]	97.2	–
CCC1CCCCN1S(=O)(=O)c1ccc(-n2ncc(Cl)c(Cl)c2=O)cc1 (centres unmarked) [CBK305038]	13.9	–
COc1ccc2ncc(C(=O)O)c(Nc3ccccc3C)c2c1 [CBK269522C]	104	–
Cc1nc2c(c(=O)[nH]1)CCN(C(=O)c1cc(C3CC3)oc1C)C2 [CBK283753]	92.5	–
Cc1ccccc1N1CC(C(=O)Nc2cccnc2)CC1=O (centres unmarked) [CBK288138]	88.3	–
O=C1CN(C(=O)NC2CCc3ccccc32)CCN1 (centres unmarked) [CBK155878]	97.5	–
FC(F)(F)c1ccc(SCc2ccc(Cl)c(Cl)c2)nc1 [CBK103713]	95.3	–
O=C(O)CCC(=O)NCc1ccc2c(c1)OCO2 [CBK286930]	91.6	–
Cc1ccccc1SCC(C)C(=O)O (centres unmarked) [CBK012292]	83	–
Cc1ccc(S(=O)(=O)NC(C)(C)CSc2nncn2N)cc1 [CBK266297]	103	–
O=C(CSc1nnc(C2CC2)[nH]1)Nc1ccc(SC(F)F)cc1 [CBK295302]	101	–
Oc1ccccc1Nc1nc(NC2CCCC2)c2ccccc2n1 [CBK268402C]	84.8	–
O=C(Nc1nc(OCCN2CCCC2=O)cnc1/C=C\c1ccccc1)c1cc2ccccc2s1 [CBK145380]	115	–
CN1CCN(CC(=O)Nc2ccc(OCc3ccccc3)cc2)CC1 [CBK264844]	103	–

Compound	viability at 28.5 h, 10 µM [%]	viability at 28.5 h, 10 µM (bulk resorufin, single well) [%]
CC(C)CN1CCCN(S(=O)(=O)c2ccc(-n3cnc(Cl)c3Cl)cc2)CC1 [CBK063017]	88.5	–
Cc1ccccc1OC(C)C(=O)Nc1nnc[nH]1 (centres unmarked) [CBK268605]	85.6	–
c1ccc(NCCOc2nccnc2N2CCCC2)cc1 [CBK115814]	87.9	–
COC(=O)[C@H]1CN(C(=O)c2cccs2)C[C@@H]1c1ccc(F)cc1 [CBK283732]	92	–
Cc1cc(C)nc(N2CCC(CC(=O)NCC(C)N3CCCCCC3)CC2)n1 (centres unmarked) [CBK286029]	94.9	–
COc1ccc2c(c1)COC1(CCN(C(=O)N[C@@H](C)c3ccccc3)CC1)O2 [CBK060757]	–	106
Cc1c(OCc2ccc(C(=O)O)cc2)ccc2c(-c3ccccc3)cc(=O)oc12 [CBK296080]	117	–
OCc1ccccc1-c1nccnc1NCCc1cccnc1 [CBK037444]	94	–
CCn1c(SCC(=O)Nc2ccc([N+](=O)[O-])cc2)nnc1C(NC(=O)c1ccccc1)C(C)C (centres unmarked) [CBK107508]	94.9	–
Cc1ccc(Cc2c(C)nc(N3CCN(Cc4ccccc4)CC3)[nH]c2=O)cc1 [CBK270170]	115	–
CCCC12CN3CC(CCC)(CN(C1)C3c1ccc([N+](=O)[O-])cc1)C2=O (centres unmarked) [CBK264481]	101	–
Nc1ncc(-c2cncnc2)nc1-c1ccc(CCC(=O)O)cc1 [CBK064120]	102	–
O=C(O)CSc1nnc(-c2ccc(F)cc2)o1 [CBK068115]	104	–
O=C(NC(Cc1ccccc1)N1C(=O)c2ccccc2C1=O)N1CCCc2ccccc21 (centres unmarked) [CBK265551]	111	–
OCCCNc1cc(Nc2ccccc2)n2nccc2n1 [CBK037078]	102	–
CCC1CCCCN1C(=O)c1ccc(C)c(OC)c1 (centres unmarked) [CBK081557]	103	–
O=C(c1cnc2ccccc2n1)N1CCN(CCc2ccccc2)CC1 [CBK200214]	91	–
CC(=O)Nc1ccccc1NC(=O)COc1ccc(Br)cc1C [CBK265072]	103	–
O=C1CC2(CCN(C(=O)c3ccoc3)CC2)Oc2ccc3ccccc3c21 [CBK156444]	91	–
CCCCOc1nccnc1-c1ccsc1 [CBK106778]	101	–
Cc1nc2cc(C(=O)N3CCC(c4ccccc4)C3)ccc2n1C (centres unmarked) [CBK281841]	66.5	–
O=C(O)c1ccc(-n2ncc3ccccc3c2=O)cc1 [CBK288229]	111	–

Compound	viability at 28.5 h, 10 µM [%]	viability at 28.5 h, 10 µM (bulk resorufin, single well) [%]
O=C(c1cncnc1)N1CCC2(CCN(C(=O)c3cc(F)c(F)cc3F)C2)C1 (centres unmarked) [CBK131405]	94.8	–
O=C(Cc1cccc2ccccc12)Nc1ccc2oc(-c3ccccc3)nc2c1 [CBK266286]	96.3	–
Cc1csc2c(N3CCC(NCCc4ccnn4C)CC3)ncnc12 [CBK307515]	89.8	–
OC1CSc2nc(-c3cnccn3)nn2C1 (centres unmarked) [CBK027096]	97.8	–
CCOCCCNC(=O)c1ncoc1-c1ccc(F)cc1 [CBK282353]	92.6	–
OC1(CCCN2CCOCC2)C2CCCC1CN(Cc1ccccc1)C2 (centres unmarked) [CBK025076C]	115	–
CC(C)(CC(=O)O)CC(=O)Nc1ccc(N2CCCC2=O)cc1 [CBK299787]	109	–
O=C(CN1CCN(CC(=O)NC2CC2)CC1)Nc1cc(Cl)ccc1Cl [CBK306091]	84.8	–
CN(C)C[C@H]1CC[C@]2(CC1)CN(C(=O)C1CC1)Cc1ccccc1O2 [CBK284920]	101	–
O=C(Nc1ccc(I)cc1)c1ccc(CN2CCc3ccccc3C2)cc1 [CBK262672]	101	–
COc1ccc(C)cc1S(=O)(=O)n1ccc2c(CNC3CC(C)(C)NC(C)(C)C3)cccc21 [CBK113311T]	83.1	–
CCCS(=O)(=O)NC1CC(C)(C)Cc2c1cnn2-c1ccc(F)cc1 (centres unmarked) [CBK306770]	113	–
COc1ccc(C2CC(c3ccc4ccccc4c3)=NN2C(=O)COc2ccccc2C(=O)O)cc1 (centres unmarked) [CBK297503]	102	–
CCn1cc(S(=O)(=O)NCc2ccccc2F)cn1 [CBK270306]	91.6	–
O=C(O)CCNC(=O)c1ccc(NS(=O)(=O)c2ccc(C3CCCCC3)cc2)cc1 [CBK296991]	96.1	–
COc1ccc(-c2ccc(CN(Cc3ccc4c(c3)OCO4)CC(C)O)cc2)cc1 (centres unmarked) [CBK286470]	95	–
CC(=O)Nc1cccc(-n2nnnc2SCc2cnn(C)c2)c1 [CBK305471]	101	–
CCC1(CC)OC(NC[C@@H](C)c2ccccc2)=NC1=O [CBK123983]	116	–
Cc1ccc(C)c(C2CCCN2C(=O)C2CN(C(=O)C3CCN(C)CC3)C2)c1 (centres unmarked) [CBK286022]	97.5	–
CC1CCN(S(=O)(=O)c2cccc(C(=O)NNC(=O)c3ccco3)c2)CC1 [CBK266796]	92.2	–
O=C(NC1CC1)c1cnoc1-c1ccccc1 [CBK154935]	106	–
